Test results from ChEMBL document CHEMBL1150976, “The selectivity of protein kinase inhibitors: a further update” (Biochem J, 2007).

How the values were obtained:
[1] = molecular target: RAC-alpha serine/threonine-protein kinase (Homo sapiens) (UniProt P31749); test: Percentage PKBalpha activity remaining in the presence of 0.1uM inhibitor
[2] = molecular target: Serine/threonine-protein kinase Nek6 (Homo sapiens) (UniProt Q9HC98); test: Percentage NEK6 activity remaining in the presence of 0.1uM inhibitor
Serine/threonine-protein kinase Nek6 (Homo sapiens), sequence (Q9HC98 whole entry): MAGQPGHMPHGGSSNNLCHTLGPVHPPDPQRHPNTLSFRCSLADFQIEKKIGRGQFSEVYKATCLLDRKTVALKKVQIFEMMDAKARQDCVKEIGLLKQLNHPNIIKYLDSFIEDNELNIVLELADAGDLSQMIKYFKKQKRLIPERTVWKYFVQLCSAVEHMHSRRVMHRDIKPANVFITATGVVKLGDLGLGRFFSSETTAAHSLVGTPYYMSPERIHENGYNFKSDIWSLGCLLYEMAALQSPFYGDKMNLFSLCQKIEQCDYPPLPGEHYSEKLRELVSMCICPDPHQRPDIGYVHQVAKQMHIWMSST

[3] = molecular target: Serine/threonine-protein kinase PAK 4 (Homo sapiens, UniProt O96013); test: Percentage PAK4 activity remaining in the presence of 0.01uM inhibitor
Serine/threonine-protein kinase PAK 4, sequence (O96013 whole entry, looked up): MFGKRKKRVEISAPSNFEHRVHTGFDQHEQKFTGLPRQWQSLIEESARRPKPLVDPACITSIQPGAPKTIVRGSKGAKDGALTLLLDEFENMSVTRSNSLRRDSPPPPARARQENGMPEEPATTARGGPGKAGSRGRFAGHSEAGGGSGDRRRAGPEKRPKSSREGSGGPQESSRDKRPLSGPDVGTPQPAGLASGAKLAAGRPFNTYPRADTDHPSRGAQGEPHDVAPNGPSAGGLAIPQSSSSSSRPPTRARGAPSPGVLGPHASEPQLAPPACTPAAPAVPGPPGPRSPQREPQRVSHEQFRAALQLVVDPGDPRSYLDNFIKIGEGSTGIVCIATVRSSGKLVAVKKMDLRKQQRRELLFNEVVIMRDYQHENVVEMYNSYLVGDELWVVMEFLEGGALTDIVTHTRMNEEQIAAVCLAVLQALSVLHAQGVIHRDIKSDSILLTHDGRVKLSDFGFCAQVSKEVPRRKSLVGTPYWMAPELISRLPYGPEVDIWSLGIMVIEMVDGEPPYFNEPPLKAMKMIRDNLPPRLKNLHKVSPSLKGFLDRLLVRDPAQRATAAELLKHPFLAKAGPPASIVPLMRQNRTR

[4] = molecular target: Mitogen-activated protein kinase 8 (Homo sapiens, UniProt P45983); test: Percentage JNK1 activity remaining in the presence of 0.01uM inhibitor
Mitogen-activated protein kinase 8, sequence (P45983 whole entry): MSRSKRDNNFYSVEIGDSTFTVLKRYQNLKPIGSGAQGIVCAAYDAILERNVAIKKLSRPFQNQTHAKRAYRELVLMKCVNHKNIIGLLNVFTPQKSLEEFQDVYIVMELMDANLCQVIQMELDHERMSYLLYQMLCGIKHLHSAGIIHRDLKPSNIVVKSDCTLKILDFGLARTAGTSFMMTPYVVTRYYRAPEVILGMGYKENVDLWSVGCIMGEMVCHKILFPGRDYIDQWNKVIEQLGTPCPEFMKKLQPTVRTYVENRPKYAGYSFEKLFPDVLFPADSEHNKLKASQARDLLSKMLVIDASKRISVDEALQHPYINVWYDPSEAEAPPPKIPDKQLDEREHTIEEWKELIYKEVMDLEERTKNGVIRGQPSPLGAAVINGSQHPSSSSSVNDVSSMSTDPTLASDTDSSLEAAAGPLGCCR

[5] = molecular target: cAMP-dependent protein kinase catalytic subunit alpha (Homo sapiens, UniProt P17612); test: Percentage PKA activity remaining in the presence of 0.01uM inhibitor
[6] = molecular target: Mitogen-activated protein kinase 14 (Homo sapiens, UniProt Q16539); test: Percentage p38alpha activity remaining in the presence of 0.01uM inhibitor
Mitogen-activated protein kinase 14, sequence (Q16539 whole entry): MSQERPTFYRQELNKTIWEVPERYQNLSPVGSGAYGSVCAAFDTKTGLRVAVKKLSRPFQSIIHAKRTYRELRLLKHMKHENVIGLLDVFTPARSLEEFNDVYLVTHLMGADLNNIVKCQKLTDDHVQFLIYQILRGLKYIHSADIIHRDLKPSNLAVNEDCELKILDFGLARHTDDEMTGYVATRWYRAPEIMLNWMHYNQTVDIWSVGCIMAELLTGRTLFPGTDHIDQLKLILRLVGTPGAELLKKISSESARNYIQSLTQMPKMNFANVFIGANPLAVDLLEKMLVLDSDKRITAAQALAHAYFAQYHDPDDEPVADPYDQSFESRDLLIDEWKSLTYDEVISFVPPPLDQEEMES

[7] = molecular target: T1, Serine/threonine-protein kinase D1 (Homo sapiens) (UniProt Q15139); test: Percentage PKD1 activity remaining in the presence of 0.01uM inhibitor
T1 sequence (whole entry): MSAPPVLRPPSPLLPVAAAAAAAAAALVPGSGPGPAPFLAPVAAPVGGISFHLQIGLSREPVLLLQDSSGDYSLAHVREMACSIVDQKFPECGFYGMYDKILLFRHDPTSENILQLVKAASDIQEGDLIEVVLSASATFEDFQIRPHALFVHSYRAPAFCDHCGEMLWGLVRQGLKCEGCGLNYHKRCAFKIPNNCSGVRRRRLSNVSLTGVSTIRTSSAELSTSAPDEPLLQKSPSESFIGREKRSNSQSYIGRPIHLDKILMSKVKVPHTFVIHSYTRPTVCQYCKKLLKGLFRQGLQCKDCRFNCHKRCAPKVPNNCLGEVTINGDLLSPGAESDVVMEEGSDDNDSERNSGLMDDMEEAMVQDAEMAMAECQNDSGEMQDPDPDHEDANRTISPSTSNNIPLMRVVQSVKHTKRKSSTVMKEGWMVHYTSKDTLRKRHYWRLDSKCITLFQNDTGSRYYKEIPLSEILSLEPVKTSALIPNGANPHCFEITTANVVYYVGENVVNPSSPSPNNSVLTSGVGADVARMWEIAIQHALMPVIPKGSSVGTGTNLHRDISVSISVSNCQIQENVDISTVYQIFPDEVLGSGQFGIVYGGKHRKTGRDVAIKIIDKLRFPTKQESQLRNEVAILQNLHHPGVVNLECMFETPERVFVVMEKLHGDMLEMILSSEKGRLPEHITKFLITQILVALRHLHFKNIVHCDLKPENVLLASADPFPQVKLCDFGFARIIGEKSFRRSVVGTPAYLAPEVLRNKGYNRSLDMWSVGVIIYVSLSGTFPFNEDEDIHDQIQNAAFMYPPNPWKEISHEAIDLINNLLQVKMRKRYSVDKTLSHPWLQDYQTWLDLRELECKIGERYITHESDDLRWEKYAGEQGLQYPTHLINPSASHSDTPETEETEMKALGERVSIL

[8] = molecular target: Serine/threonine-protein kinase pim-1 (Homo sapiens, UniProt P11309); test: Percentage PIM1 activity remaining in the presence of 0.01uM inhibitor
Serine/threonine-protein kinase pim-1, sequence (P11309 whole entry, looked up): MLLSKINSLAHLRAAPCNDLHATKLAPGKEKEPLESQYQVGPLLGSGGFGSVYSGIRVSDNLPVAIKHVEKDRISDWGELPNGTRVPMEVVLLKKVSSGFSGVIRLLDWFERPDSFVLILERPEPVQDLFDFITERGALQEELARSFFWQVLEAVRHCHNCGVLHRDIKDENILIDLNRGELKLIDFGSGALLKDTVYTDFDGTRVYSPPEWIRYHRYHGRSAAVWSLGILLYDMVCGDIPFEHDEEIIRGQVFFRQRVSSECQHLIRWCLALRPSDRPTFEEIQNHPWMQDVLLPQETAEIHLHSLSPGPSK

[9] = molecular target: Homeodomain-interacting protein kinase 2 (Homo sapiens) (UniProt Q9H2X6); test: Percentage HIPK2 activity remaining in the presence of 0.01uM inhibitor
Homeodomain-interacting protein kinase 2 (Homo sapiens), sequence (Q9H2X6 whole entry, looked up): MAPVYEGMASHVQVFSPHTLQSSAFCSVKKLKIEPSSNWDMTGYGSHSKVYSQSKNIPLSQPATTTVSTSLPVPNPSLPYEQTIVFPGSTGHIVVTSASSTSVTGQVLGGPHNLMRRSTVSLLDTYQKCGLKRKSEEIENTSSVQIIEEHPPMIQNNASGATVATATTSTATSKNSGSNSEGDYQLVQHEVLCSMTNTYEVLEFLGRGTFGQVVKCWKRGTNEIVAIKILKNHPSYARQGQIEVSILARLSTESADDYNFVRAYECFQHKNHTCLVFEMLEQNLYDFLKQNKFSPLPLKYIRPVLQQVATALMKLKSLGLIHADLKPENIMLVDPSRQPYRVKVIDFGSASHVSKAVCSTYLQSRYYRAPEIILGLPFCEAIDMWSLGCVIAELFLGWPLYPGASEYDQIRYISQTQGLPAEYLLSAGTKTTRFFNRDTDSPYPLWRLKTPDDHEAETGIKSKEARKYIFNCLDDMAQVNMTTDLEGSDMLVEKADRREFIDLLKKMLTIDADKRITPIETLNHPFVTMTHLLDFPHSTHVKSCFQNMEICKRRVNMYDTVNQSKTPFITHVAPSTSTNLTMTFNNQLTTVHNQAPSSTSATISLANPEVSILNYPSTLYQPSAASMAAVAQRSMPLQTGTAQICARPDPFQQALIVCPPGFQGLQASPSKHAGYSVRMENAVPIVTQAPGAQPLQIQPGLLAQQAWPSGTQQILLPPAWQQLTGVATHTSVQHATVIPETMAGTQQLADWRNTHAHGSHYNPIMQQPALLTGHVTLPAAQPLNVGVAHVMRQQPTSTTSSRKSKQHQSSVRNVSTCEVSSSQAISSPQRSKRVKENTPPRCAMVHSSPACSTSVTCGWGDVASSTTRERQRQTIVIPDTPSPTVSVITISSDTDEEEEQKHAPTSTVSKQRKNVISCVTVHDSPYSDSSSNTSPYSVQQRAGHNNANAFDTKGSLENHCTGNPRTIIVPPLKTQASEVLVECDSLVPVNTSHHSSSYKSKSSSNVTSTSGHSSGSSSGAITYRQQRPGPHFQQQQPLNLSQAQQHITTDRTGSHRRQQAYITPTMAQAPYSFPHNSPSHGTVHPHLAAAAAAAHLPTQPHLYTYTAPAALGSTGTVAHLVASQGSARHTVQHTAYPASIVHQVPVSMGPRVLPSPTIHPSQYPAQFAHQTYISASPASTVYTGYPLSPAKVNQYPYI

[10] = molecular target: Ribosomal protein S6 kinase alpha-1 (Homo sapiens) (UniProt Q15418); test: Percentage RSK1 activity remaining in the presence of 0.01uM inhibitor
Ribosomal protein S6 kinase alpha-1 (Homo sapiens), sequence (Q15418 whole entry): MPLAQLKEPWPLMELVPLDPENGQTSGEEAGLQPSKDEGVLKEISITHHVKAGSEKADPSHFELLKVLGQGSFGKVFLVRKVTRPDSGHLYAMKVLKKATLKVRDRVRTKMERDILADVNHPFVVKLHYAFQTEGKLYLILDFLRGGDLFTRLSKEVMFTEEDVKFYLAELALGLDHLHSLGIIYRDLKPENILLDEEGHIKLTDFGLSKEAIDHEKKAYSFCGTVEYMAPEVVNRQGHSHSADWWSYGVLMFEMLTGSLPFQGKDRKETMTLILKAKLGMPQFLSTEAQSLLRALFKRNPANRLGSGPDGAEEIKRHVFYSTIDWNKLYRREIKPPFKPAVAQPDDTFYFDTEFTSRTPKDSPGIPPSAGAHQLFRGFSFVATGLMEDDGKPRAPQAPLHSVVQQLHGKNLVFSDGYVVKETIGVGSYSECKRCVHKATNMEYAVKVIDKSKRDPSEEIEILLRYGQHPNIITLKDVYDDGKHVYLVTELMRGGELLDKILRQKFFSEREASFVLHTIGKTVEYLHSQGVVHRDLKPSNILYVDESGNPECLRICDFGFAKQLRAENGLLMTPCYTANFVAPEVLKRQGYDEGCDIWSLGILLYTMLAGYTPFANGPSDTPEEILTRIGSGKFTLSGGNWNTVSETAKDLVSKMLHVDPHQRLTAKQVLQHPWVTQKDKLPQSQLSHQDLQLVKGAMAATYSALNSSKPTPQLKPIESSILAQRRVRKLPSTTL

[11] = molecular target: MAP kinase-activated protein kinase 2 (Homo sapiens) (UniProt P49137); test: Percentage MAPKAPK2 activity remaining in the presence of 0.01uM inhibitor
MAP kinase-activated protein kinase 2 (Homo sapiens), sequence (P49137 whole entry, looked up): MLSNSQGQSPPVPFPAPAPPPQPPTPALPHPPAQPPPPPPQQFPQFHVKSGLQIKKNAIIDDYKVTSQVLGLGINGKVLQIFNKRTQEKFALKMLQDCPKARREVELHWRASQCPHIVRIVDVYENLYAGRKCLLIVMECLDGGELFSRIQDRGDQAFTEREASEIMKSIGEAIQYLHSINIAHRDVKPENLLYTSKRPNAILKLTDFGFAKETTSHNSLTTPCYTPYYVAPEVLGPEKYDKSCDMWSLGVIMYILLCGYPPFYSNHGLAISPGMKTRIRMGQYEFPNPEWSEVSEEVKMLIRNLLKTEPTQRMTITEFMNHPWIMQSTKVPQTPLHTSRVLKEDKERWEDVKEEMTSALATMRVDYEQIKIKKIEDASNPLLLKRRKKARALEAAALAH

[12] = molecular target: RAC-alpha serine/threonine-protein kinase (Homo sapiens) (UniProt P31749); test: Percentage PKBalpha activity remaining in the presence of 0.01uM inhibitor
[13] = molecular target: MAP kinase-interacting serine/threonine-protein kinase 2 (Homo sapiens) (UniProt Q9HBH9); test: Percentage MNK2 activity remaining in the presence of 0.01uM inhibitor
MAP kinase-interacting serine/threonine-protein kinase 2 (Homo sapiens), sequence (Q9HBH9 whole entry, looked up): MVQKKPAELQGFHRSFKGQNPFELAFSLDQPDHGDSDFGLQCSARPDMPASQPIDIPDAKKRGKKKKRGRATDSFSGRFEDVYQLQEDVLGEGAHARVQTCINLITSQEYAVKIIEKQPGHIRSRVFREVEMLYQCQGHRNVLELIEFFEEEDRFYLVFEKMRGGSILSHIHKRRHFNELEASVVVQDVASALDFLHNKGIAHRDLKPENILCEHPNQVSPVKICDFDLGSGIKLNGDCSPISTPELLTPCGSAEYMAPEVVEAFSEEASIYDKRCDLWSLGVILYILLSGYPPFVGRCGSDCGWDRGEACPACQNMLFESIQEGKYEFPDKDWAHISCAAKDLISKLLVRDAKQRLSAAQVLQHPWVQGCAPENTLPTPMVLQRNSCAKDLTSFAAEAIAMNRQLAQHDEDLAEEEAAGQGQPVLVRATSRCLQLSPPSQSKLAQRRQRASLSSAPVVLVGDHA

Aurora kinase B = Aurora kinase B (Homo sapiens, UniProt Q96GD4); test: Percentage Aurora B activity remaining in the presence of 0.01uM inhibitor
[14] = molecular target: Mitogen-activated protein kinase 10 (Homo sapiens) (UniProt P53779); test: Percentage JNK3 activity remaining in the presence of 0.01uM inhibitor
[15] = molecular target: T2, Mitogen-activated protein kinase 13 (Homo sapiens) (UniProt O15264); test: Percentage p38delta activity remaining in the presence of 0.01uM inhibitor
T2 sequence (whole entry): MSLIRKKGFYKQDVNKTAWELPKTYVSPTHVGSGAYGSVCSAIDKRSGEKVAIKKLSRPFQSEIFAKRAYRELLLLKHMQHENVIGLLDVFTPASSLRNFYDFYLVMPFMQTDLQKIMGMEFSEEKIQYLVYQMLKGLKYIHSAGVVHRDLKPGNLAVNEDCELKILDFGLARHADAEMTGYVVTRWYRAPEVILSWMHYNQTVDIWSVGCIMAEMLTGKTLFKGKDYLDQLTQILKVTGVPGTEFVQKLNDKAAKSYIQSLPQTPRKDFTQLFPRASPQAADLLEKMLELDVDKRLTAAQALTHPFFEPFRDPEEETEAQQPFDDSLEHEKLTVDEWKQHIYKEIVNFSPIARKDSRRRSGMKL

[16] = molecular target: T3, Eukaryotic elongation factor 2 kinase (Homo sapiens) (UniProt O00418); test: Percentage EF2K activity remaining in the presence of 0.01uM inhibitor
T3 sequence (whole entry): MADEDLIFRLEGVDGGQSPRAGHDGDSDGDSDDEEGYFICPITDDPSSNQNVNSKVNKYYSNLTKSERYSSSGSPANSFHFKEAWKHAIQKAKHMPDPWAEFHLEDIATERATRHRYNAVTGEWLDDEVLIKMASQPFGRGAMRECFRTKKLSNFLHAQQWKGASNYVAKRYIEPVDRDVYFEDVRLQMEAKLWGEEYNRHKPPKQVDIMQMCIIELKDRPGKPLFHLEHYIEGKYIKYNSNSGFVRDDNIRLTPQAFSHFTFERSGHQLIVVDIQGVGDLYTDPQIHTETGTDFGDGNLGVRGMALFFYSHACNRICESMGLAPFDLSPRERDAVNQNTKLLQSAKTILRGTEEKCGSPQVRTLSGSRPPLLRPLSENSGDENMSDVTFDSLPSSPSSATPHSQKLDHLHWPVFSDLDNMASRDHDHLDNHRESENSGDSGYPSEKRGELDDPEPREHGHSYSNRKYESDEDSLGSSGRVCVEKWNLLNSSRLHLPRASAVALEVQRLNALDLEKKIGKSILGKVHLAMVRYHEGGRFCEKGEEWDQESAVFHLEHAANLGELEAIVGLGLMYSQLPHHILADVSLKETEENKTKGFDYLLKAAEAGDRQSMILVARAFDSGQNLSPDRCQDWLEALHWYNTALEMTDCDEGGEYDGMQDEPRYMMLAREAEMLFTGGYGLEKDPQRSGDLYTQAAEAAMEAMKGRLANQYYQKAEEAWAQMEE

SMILES	Activity [1] [%]	Activity [2] [%]	Activity [4] [%]	Activity [6] [%]	Activity [7] [%]	Activity [8] [%]	Activity [9] [%]	Activity [11] [%]	Activity [14] [%]	Activity [15] [%]	Activity [16] [%]	also measured
CC(C)[C@H](CO)Nc1nc(Nc2cccc(Cl)c2)c2ncn(C(C)C)c2n1 [PURVALANOLA]	95	91										
Cn1c2ccccc2c2c3c(c4c5ccccc5n(CCC#N)c4c21)CNC3=O	96	96										
O=C(NCCCNc1nc(Nc2cccc(NC(=O)N3CCCC3)c2)ncc1I)c1cccs1	90	98	104	86	84	103	95	108	93	91	98	Activity [3]: 91%; Activity [5]: 102%; Activity [10]: 100%; Activity [12]: 90%; Activity ([13]; filed as antagonist): 47%; Activity (Aurora kinase B; filed as antagonist): 17%
CC(C)CCN1c2nc(Nc3cc(F)c(O)c(F)c3)ncc2N(C)C(=O)C1C (centres undefined)	98	115										
Cn1cc(C2=C(c3cn(CCCSC(=N)N)c4ccccc34)C(=O)NC2=O)c2ccccc21	52	97										
CN(C)C[C@@H]1CCn2cc(c3ccccc32)C2=C(C(=O)NC2=O)c2cn(c3ccccc23)CCO1	90	93										
Cc1n[nH]c2ccc(-c3cncc(OC[C@@H](N)Cc4c[nH]c5ccccc45)c3)cc12		95	89	131	63	57	73	92	81	86	93	Activity [3]: 99%; Activity ([5]; filed as antagonist): 26%; Activity ([1]; filed as antagonist): 3%; Activity [10]: 78%; Activity ([12]; filed as antagonist): 5%; Activity [13]: 97%; Activity (Aurora kinase B): 81%
CN[C@@H]1C[C@H]2O[C@@](C)([C@@H]1OC)n1c3ccccc3c3c4c(c5c6ccccc6n2c5c31)C(=O)N[C@H]4O (stereo in doubt)			79	105	83	52	109	75	107	94	105	Activity ([3]; filed as antagonist): 33%; Activity [5]: 63%; Activity ([10]; filed as antagonist): 25%; Activity [12]: 79%; Activity [13]: 103%; Activity (Aurora kinase B): 59%
